In patent publication US20100189648A1, “INHIBITORS FOR DISRUPTING THE INTERACTION OF UBIQUITINATION RELATED ENZYMES AND USES THEREOF” (priority 2006, published 2010):
≈ marks a conversion by molar mass, not a printed value. Like-named read-outs stand apart in the source and are kept apart here.

Experiments:
Type in all cases: cell-based, human
SKOV3 = assay: MTT survival assay, ovarian cancer cell line (SKOV3); conditions: SKOV3 (first table)
Protocol: (§1) The effect of the above identified compounds on anti-tumor activity in human carcinoma cells was determined by the MTT survival assay. The MTT assay is a commonly used method in evaluation of cell survival, based on the ability of viable cells to convert MTT (MTT, Sigma, Cat No. 044K5307), a soluble tetrazolium salt [3-(4,5-dimethylthuazole-2-yl)-2,5 diphenyl tetrazolium bromide], into an insoluble formazan precipitate, which is quantitated by spectrophotometry following solubilization in dimethyl sulfoxide (DMSO).
(§2) In brief, different carcinoma cells were treated with negative control, various test articles at different concentration, and positive control (DDP), in 96-well tissue culture dishes. Each test article at different concentration is repeated 3 times.
(§3) Different carcinoma cells were diluted with 10% FBS and RPM1640 or MEM media to a concentration of 3-5×10^4 per ml suspension. 100 microliter of cells were incubated in each well in 96-well tissue culture dishes at 37 C. The cells were incubated at 37 C on the first day. On the second day, media supernatant was removed and replaced with media and different concentration of test articles (100 microliter in each well). Three Negative control wells and three positive control (DDP) wells were also included. The 96-well plate were incubated at 37 C for another 68 hours. After 68 hours, supernatant of each well was removed. 100 microliter of 1 mg/ml MTT diluted in PBS was injected into each well. The cells were incubated at 37 C for another 4 hours. The cells were then solubilized in 150 microliter DMSO, mixed for 10 minutes and absorbance readings were taken using Microplate reader Bio-Rad Model 550 at 570 nm. IR (cell growth inhibition rate) % was calculated as (OD570 of negative control-OD570 with test article)/OD570 of negative control. IC50 (cell 50% inhibition concentration) at 95% confidence level was calculated with Bliss method.

A459 = assay: MTT survival assay, lung cancer cell line (A459); conditions: A459
Protocol: as §1, §2, §3

Hela cells = assay: MTT survival assay, cervical cancer line (Hela cells)
Protocol: as §1, §2, §3

U251 = assay: MTT survival assay, glioma cell line (brain tumor U251); conditions: U251 (first table)
Protocol: as §1, §2, §3

MCF-7 = assay: MTT survival assay, breast cancer cell line (MCF-7); conditions: for IC50: Homo sapiens
Protocol: as §1, §2, §3

SMMC-7721 = assay: MTT survival assay, liver cancer cell line (SMMC-7721); conditions: SMMC-7721
Protocol: as §1, §2, §3

Structure (SMILES): COc1ccccc1NC(=O)CSc1nc(-c2ccccc2)nc2ccccc12 [Mol 44]
- IC50 (SKOV3; Homo sapiens, SK-OV-3, Bliss method, unit not printed (concentrations in μg/ml), read-out: IC50 (95% confidence level)): 60 µg/mL (≈ 149 µM)
- IR (%) (SKOV3; 1.56 μg/ml): 27.9%
- OD(A570 nm) (SKOV3; 1.56 μg/ml): 0.505 ± 0.029
- IR (%) (SKOV3; 3.125 μg/ml): 23.9%
- OD(A570 nm) (SKOV3; 3.125 μg/ml): 0.533 ± 0.017
- IR (%) (SKOV3; 6.25 μg/ml): 23.0%
- OD(A570 nm) (SKOV3; 6.25 μg/ml): 0.539 ± 0.023
- IR (%) (SKOV3; 12.5 μg/ml): 25.1%
- OD(A570 nm) (SKOV3; 12.5 μg/ml): 0.525 ± 0.035
- IR (%) (SKOV3; 25 μg/ml): 39.1%
- OD(A570 nm) (SKOV3; 25 μg/ml): 0.426 ± 0.008
- IR (%) (SKOV3; 50 μg/ml): 52.4%
- OD(A570 nm) (SKOV3; 50 μg/ml): 0.333 ± 0.008
- IR (%) (A459; 1.56 μg/ml): 0.6%
- OD(A570 nm) (A459; 1.56 μg/ml): 0.634 ± 0.009
- IR (%) (A459; 3.125 μg/ml): −23.3%
- OD(A570 nm) (A459; 3.125 μg/ml): 0.786 ± 0.048
- IR (%) (A459; 6.25 μg/ml): −6.8%
- OD(A570 nm) (A459; 6.25 μg/ml): 0.680 ± 0.015
- IR (%) (A459; 12.5 μg/ml): 8.1%
- OD(A570 nm) (A459; 12.5 μg/ml): 0.586 ± 0.051
- IR (%) (A459; 25 μg/ml): 21.0%
- OD(A570 nm) (A459; 25 μg/ml): 0.504 ± 0.046
- IR (%) (A459; 50 μg/ml): 42.3%
- OD(A570 nm) (A459; 50 μg/ml): 0.368 ± 0.039
- IC50 (A459; Homo sapiens, Bliss method, unit not printed (concentrations in μg/ml), read-out: IC50 (95% confidence level)): 150 µg/mL (≈ 374 µM)
- IR (%) (Hela cells; 0.07 μg/ml): 19.3%
- OD(A570 nm) (Hela cells; 0.07 μg/ml): 0.599 ± 0.109
- IR (%) (Hela cells; 0.21 μg/ml): 11.8%
- OD(A570 nm) (Hela cells; 0.21 μg/ml): 0.655 ± 0.007
- OD(A570 nm) (Hela cells; 0.62 μg/ml): 0.765 ± 0.200
- IR (%) (Hela cells; 1.85 μg/ml): 0.8%
- OD(A570 nm) (Hela cells; 1.85 μg/ml): 0.737 ± 0.113
- IR (%) (Hela cells; 5.56 μg/ml): 9.7%
- OD(A570 nm) (Hela cells; 5.56 μg/ml): 0.671 ± 0.044
- IR (%) (Hela cells; 16.67 μg/ml): 7.4%
- OD(A570 nm) (Hela cells; 16.67 μg/ml): 0.688 ± 0.045
- IC50 (U251; Homo sapiens, U-251, Bliss method, unit not printed (concentrations in μg/ml), read-out: IC50 (95% confidence level)): 129 µg/mL (≈ 322 µM)
- IR (%) (U251; 1.56 μg/ml): 9.9%
- OD(A570 nm) (U251; 1.56 μg/ml): 0.790 ± 0.086
- IR (%) (U251; 3.125 μg/ml): 19.6%
- OD(A570 nm) (U251; 3.125 μg/ml): 0.705 ± 0.061
- IR (%) (U251; 6.25 μg/ml): 1.2%
- OD(A570 nm) (U251; 6.25 μg/ml): 0.866 ± 0.090
- IR (%) (U251; 12.5 μg/ml): 7.5%
- OD(A570 nm) (U251; 12.5 μg/ml): 0.811 ± 0.050
- IR (%) (U251; 25 μg/ml): 15.9%
- OD(A570 nm) (U251; 25 μg/ml): 0.737 ± 0.067
- IR (%) (U251; 50 μg/ml): 24.9%
- OD(A570 nm) (U251; 50 μg/ml): 0.659 ± 0.047
- IR (%) (MCF-7; 1.56 μg/ml): 13.3%
- OD(A570 nm) (MCF-7; 1.56 μg/ml): 0.787 ± 0.176
- IR (%) (MCF-7; 3.125 μg/ml): 12.8%
- OD(A570 nm) (MCF-7; 3.125 μg/ml): 0.811 ± 0.109
- IR (%) (MCF-7; 6.25 μg/ml): 10.2%
- OD(A570 nm) (MCF-7; 6.25 μg/ml): 0.791 ± 0.151
- IR (%) (MCF-7; 12.5 μg/ml): 12.4%
- OD(A570 nm) (MCF-7; 12.5 μg/ml): 0.791 ± 0.151
- IR (%) (MCF-7; 25 μg/ml): 34.9%
- OD(A570 nm) (MCF-7; 25 μg/ml): 0.587 ± 0.030
- IR (%) (MCF-7; 50 μg/ml): 41.6%
- OD(A570 nm) (MCF-7; 50 μg/ml): 0.527 ± 0.035
- IC50 (MCF-7; MCF7, 95% confidence limits of IC50, read-out: IC50 (95% confidence level), interval): 71.3 to 551 µg/mL (≈ 178 to 1370 µM)
- IC50 (MCF-7; MCF7, Bliss method, unit not printed (concentrations in μg/ml), read-out: IC50 (95% confidence level)): 145 µg/mL (≈ 362 µM)
- IR (%) (SMMC-7721; 1.56 μg/ml): 37.6%
- OD(A570 nm) (SMMC-7721; 1.56 μg/ml): 0.275 ± 0.004
- IR (%) (SMMC-7721; 3.125 μg/ml): 27.2%
- OD(A570 nm) (SMMC-7721; 3.125 μg/ml): 0.321 ± 0.088
- IR (%) (SMMC-7721; 6.25 μg/ml): 38.3%
- OD(A570 nm) (SMMC-7721; 6.25 μg/ml): 0.272 ± 0.019
- IR (%) (SMMC-7721; 12.5 μg/ml): 11.1%
- OD(A570 nm) (SMMC-7721; 12.5 μg/ml): 0.392 ± 0.039
- IR (%) (SMMC-7721; 25 μg/ml): 15.4%
- OD(A570 nm) (SMMC-7721; 25 μg/ml): 0.373 ± 0.019
- IR (%) (SMMC-7721; 50 μg/ml): 21.6%
- OD(A570 nm) (SMMC-7721; 50 μg/ml): 0.345 ± 0.025
